From PMC10353187, “Discovery of a new potent oxindole multi-kinase inhibitor among a series of designed 3-alkenyl-oxindoles with ancillary carbonic anhydrase inhibitory activity as antiproliferative agents” (BMC Chemistry, 2023)

Key:
Test in all cases: NCI-60 single-dose antiproliferative assay (SRB)
Assay type in all cases: cell-based
HS 578T = details: Homo sapiens, 10 μM single dose, Breast cancer, read-out: Cell Growth inhibition Percent
How it was run: (§1)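 Cells grown in RPMI 1640 with 5% FBS and 2 mM L-glutamine were plated, left 24 h at 37 °C, then exposed to compound at a single 10 µM final concentration for 48 h. Adherent cells were TCA-fixed, SRB-stained and read at 515 nm; growth was expressed relative to time-zero and untreated controls.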

SNB-19 = details: Homo sapiens; 10 μM single dose; SNB-19, CNS cancer; read-out: Cell Growth inhibition Percent
How it was run: as §1

DU-145 = details: Homo sapiens; 10 μM single dose; DU-145, Prostate cancer; read-out: Cell Growth inhibition Percent
How it was run: as §1

HT29 = details: Homo sapiens, HT-29; 10 μM single dose; HT29, Colon cancer; read-out: Cell Growth inhibition Percent
How it was run: as §1

COLO205 = details: Homo sapiens, COLO 205; 10 μM single dose; COLO205, Colon cancer; read-out: Cell Growth inhibition Percent
How it was run: as §1

OVCAR-3 = details: Homo sapiens; 10 μM single dose; OVCAR-3, Ovarian Cancer; read-out: Cell Growth inhibition Percent
How it was run: as §1

UACC-257 = details: Homo sapiens; 10 μM single dose; UACC-257, Melanoma; read-out: Cell Growth inhibition Percent
How it was run: as §1

HCC-2998 = details: Homo sapiens; 10 μM single dose; HCC-2998, Colon cancer; read-out: Cell Growth inhibition Percent
How it was run: as §1

SK-MEL-28 = details: Homo sapiens; 10 μM single dose; SK-MEL-28, Melanoma; read-out: Cell Growth inhibition Percent
How it was run: as §1

NCI/ADR-RES = details: Homo sapiens, 10 μM single dose, Ovarian Cancer, read-out: Cell Growth inhibition Percent
How it was run: as §1

HL-60(TB) = details: Homo sapiens, 10 μM single dose, Leukemia, read-out: Cell Growth inhibition Percent

Row | Structure (SMILES) | inhibition at 10 µM (HS 578T) [%] | inhibition at 10 µM (SNB-19) [%] | inhibition at 10 µM (DU-145) [%] | inhibition at 10 µM (HT29) [%] | inhibition at 10 µM (COLO205) [%] | inhibition at 10 µM (OVCAR-3) [%] | other results
1 | O=C1Nc2ccccc2C1=CNc1ccc(C(=O)O)cc1 [Compound 4c, 4-{[(2-Oxoindolin-3-ylidene)methyl]amino}benzoic acid] | 0.5 |  |  |  |  |  | 
2 | NS(=O)(=O)N/C=C1/C(=O)Nc2ccccc21 [Compound 5, 3-(sulfamidmethylene)indoline-2-one] |  | 0.31 |  |  |  |  | 
3 | NS(=O)(=O)c1ccc(NCc2ccc(NC=C3C(=O)Nc4ccccc43)cc2)cc1 [Compound 11a, 4-{[4-({[2-Oxoindolin-3-ylidene]methyl}amino)benzyl]amino}benzenesulfonamide] |  |  | 2.9 |  |  |  | 
4 | O=C1Nc2ccccc2C1=CNc1ccc(C(=O)C=CNc2nccs2)cc1 [Compound 13c, 3-{[(4-{3-[Thiazol-2-ylamino]acryloyl}phenyl)amino]methylene}indolin-2-one] |  |  |  | 8.13 | 1.8 | 3.91 | 
5 | O=C(Nc1ccc(NC=C2C(=O)Nc3ccccc32)cc1)Nc1nccs1 [Compound 15c, 1-{4-[((2-Oxoindolin-3-ylidene)methyl)amino]phenyl}-3-(thiazol-2-yl)urea] | 68.5 | 69 | 59.5 | 82.1 | 74.2 | 84.6 | inhibition at 10 µM (UACC-257): 28.4%; inhibition at 10 µM (HCC-2998): 26.1%; inhibition at 10 µM (SK-MEL-28): 38.7%; inhibition at 10 µM (NCI/ADR-RES): 59.2%; inhibition at 10 µM (HL-60(TB)): 58%
